Measured values from PMC9317316, “Synthesis and Evaluation of Some New 4H-Pyran Derivatives as Antioxidant, Antibacterial and Anti-HCT-116 Cells of CRC, with Molecular Docking, Antiproliferative, Apoptotic and ADME Investigations” (Pharmaceuticals, 2022).

Legend:
[1] = test system: CDK2 gene in HCT-116 cells; assay: qRT-PCR expression profile of the CDK2 gene in HCT-116 cells; format: cell-based, human; conditions: 24 h, relative to untreated cells (given as decreased x-fold)
Protocol: Second, the expression profiles of the CDK2 gene in HCT-116 cells treated with compounds 4d and 4k were determined. The results were compared with the positive control (cells treated with the well-known cytotoxic drug 5-fluorouracil) and the negative control (untreated cells).
Primers specific for the cyclin-dependent kinase-2 (CDK2) and caspase-3 genes were designed using primer blast (https://www.ncbi.nlm.nih.gov/tools/primer-blast/, accessed on 31 October 2021) or primer3 (https://primer3.ut.ee/, accessed on 31 October 2021) software. The selected genes covered the two main groups of the cyclin-dependent kinase-2 (CDK2) gene and the caspase-3 gene. Primers were used in RT-qPCR analysis to amplify fragments of 100–200 bp in length (Table 7).
Total RNA was extracted from each cell culture flask using the RNeasy extraction kit (RNeasy micro kit, cat. no. 74004). Up to 1 × 10^6 cells, depending on the cell line, were disrupted in buffer RLT and homogenized and disrupted. Ethanol was then added to the lysate, creating conditions that promote the selective binding of RNA to the RNeasy membrane. […] The amount of extracted RNA was quantified by estimating the absorbance at 260 nm. The purity of the RNA was checked by measuring the ratio of the absorbance at 260 and 280 nm, where a ratio ranging from 1.8 to 2.0 was taken to be pure. […]
(§1) Quantitative real-time PCR was carried out with the Thermal Cycler Rotorgene Real-Time System II (Rotorgene, South Korea) with the SYBR kit. […]
The relative expression levels through the average cycle threshold (CT) were successfully detected. Average CT values were calculated from the triplicate experiment conducted for each gene; the CT value was detected by subtracting the average CT value of genes from the CT value of actin and GAPDH genes. The relative expression levels of the target genes were calculated using the ΔΔ Ct method and the reference genes GAPDH for the cancer cell line. Finally, a fold change equation […] was used to estimate relative expression levels, while the standard deviation was calculated from the replicated experimental data.

[2] = test system: caspase-3 gene in HCT-116 cells; assay: qRT-PCR expression profile of the caspase-3 gene in HCT-116 cells; format: cell-based, human; parameters: dose or concentration left out as unconfirmed; conditions: 24 h, as compared to the negative control
Source text: Normally, apoptosis, or programmed cell death, is considered as a safeguard mechanism for managing stress and maintaining tissue homeostasis. It proceeds through a series of well-ordered biochemical cascades of events, which are regulated by a network of proteins. However, due to genetic and epigenetic mutations, deregulation of these proteins occurs, which results in evasion of apoptosis. This oncogenic transformation is a hallmark of human cancer, and it contributes to other tumorigenic events, including uncontrolled growth, accumulation of further genetic mutations, tumor angiogenesis and metastasis and chemotherapeutic resistance. Therefore, reinitiating selective cancer cell death is a fundamental goal in anticancer drug development. Research in cancer biology has provided fundamental insights into the apoptotic pathways and their deregulation in colon cancer. Moreover, it has identified the molecular targets for reinitiating selective tumor cell death, including antiapoptotic Bcl-2 family proteins, apoptosis inhibitors and activators of the TRAIL death receptor signaling pathway, as well as other apoptotic markers, such as caspases. Among the caspases, which play critical roles in apoptosis, are the initiators, including caspases-8 or 9, and the effectors, including caspase-3 and caspase-7. […] Thus, the real-time quantitative PCR analyses of caspase-3-gene levels following treatment with compounds 4d and 4K at a concentration […] for 24 h, were performed to investigate their potential as proapoptotic agents. […]
Total RNA was extracted from each cell culture flask using the RNeasy extraction kit (RNeasy micro kit, cat. no. 74004). […] The amount of extracted RNA was quantified by estimating the absorbance at 260 nm. The purity of the RNA was checked by measuring the ratio of the absorbance at 260 and 280 nm, where a ratio ranging from 1.8 to 2.0 was taken to be pure. […]
as §1

CDK2/CyclinA2 enzyme = target: T1, CDK2/CyclinA2 enzyme (Homo sapiens, UniProt P24941); assay: In vitro CDK2 inhibitory assay (Kinase-Glo); format: biochemical
T1 construct: purchased BPS Biosciences, San Diego, CA, USA 79599
Protocol: To further substantiate the promising results of the docking analyses of pyrans 4d and 4K in the ATP active site of CDK2, their in vitro potencies to inhibit the enzyme activity were evaluated over a concentration range of 0.01−10 µM.
CDK-2 inhibition activity of the studied compounds 4d and 4k was evaluated using a commercial CDK2 […] (cat. no.: 79599; BPS Biosciences, San Diego, CA, USA) following the manufacturer’s instructions. Briefly, different concentrations of each compound or the positive control BMS-265246 (0.01, 0. 1, 1 or 10 µM) were incubated with 20 µL of diluted CDK2/CyclinA2 enzyme at 30 °C for 45 min. Following the addition of 50 µL Kinase-Glo® Reagent to each well, the plate was incubated at room temperature for 15 min. Then, the luminescence signal was measured using the microplate reader. The CDK2 inhibitory activity was expressed as inhibition percentage, which was determined by comparison with a control experiment for comparative purposes. IC50 values were deduced from the curves. All measurements were performed in triplicate.

[3] = test system: CDK2 protein in HCT-116 cells; assay: Quantitative determination of CDK2 concentration in HCT-116 cell lysates (Human CDK2 ELISA Kit); format: cell-based; conditions: negative control 7.466 ng/mL
Protocol: First, the commercial Human CDK2 ELISA Kit was used to estimate concentrations of the protein in the lysate of HCT-116 cells treated with 4d and 4k. The results were compared with the positive (cells treated with the reference CDK inhibitor, BMS-265246) and negative control experiments.
The in vitro quantitative measurement of concentration of CDK2 in lysates of HCT-116 cells was carried out using a commercial Human CDK2 ELISA Kit (cat. no.: LS-F22176; LifeSpan Biosciences Inc., Seattle, WA, USA) in the presence or absence of the studied compounds (4d and 4k), following the manufacturer’s instructions. Briefly, standards, blanks or samples were first incubated in the corresponding wells for 90 min at 37 °C. Then, biotinylated detection antibody was added to each well and the plate was incubated for 1 h at 37 °C followed by the addition of an Avidin–Horseradish Peroxidase (HRP) conjugate which binds to the biotin. After incubation of the mixture for 30 min at 37 °C, unbound Avidin–HRP conjugate was washed away and a TMB substrate was then added which reacts with the HRP enzyme, resulting in color development. After that, the reaction was stopped using a sulfuric acid stop solution to terminate the color-development reaction and the optical density of each well was measured using a microplate reader at 450 nm. BMS-265246 was used as the standard drug for inhibition of CDK2. All measurements were performed in triplicate.

SMILES	CDK2 transcript level, fold [1] [fold]	caspase-3 gene transcription level, fold increase [2] [fold]	decrease of CDK2 activity (CDK2/CyclinA2 enzyme; at 10 µM) [%]	IC50 (CDK2/CyclinA2 enzyme; deduced from curves over 0.01-10 µM, read-out: IC50 against CDK2) [nM]	concentration of CDK2 in lysate of treated HCT-116 cells [3] [ng/mL]
O=c1[nH]cc(F)c(=O)[nH]1 [5-FU, 5-fluorouracil, reference compound]	0.29	7.31	–	–	–
CCCCOc1c(C(=O)c2c(F)cc(C)cc2F)c[nH]c2nncc1-2 [BMS-265246, reference compound]	–	–	92.3	36	2.229
